Reference: patent US20250122190A1, “HALOGEN-SUBSTITUTED PYRIDAZINONE COMPOUND AND APPLICATION THEREOF” (MEDSHINE DISCOVERY INC., priority 2021, published 2025)
Read-outs that look alike come from different tables or passages of the source. Each block holds one molecule with its values, some of them ahead of it.

Legend:
hTRPC5-T478C = target: T1, hTRPC5-T478C (Homo sapiens, UniProt Q9UL62); test: hTRPC5-T478C FLIPR calcium flux IC50 assay; type: cell-based; settings: hTRPC5-T478C-HEK cells, Englerin A as channel agonist
T1 sequence (Q9UL62 1-973): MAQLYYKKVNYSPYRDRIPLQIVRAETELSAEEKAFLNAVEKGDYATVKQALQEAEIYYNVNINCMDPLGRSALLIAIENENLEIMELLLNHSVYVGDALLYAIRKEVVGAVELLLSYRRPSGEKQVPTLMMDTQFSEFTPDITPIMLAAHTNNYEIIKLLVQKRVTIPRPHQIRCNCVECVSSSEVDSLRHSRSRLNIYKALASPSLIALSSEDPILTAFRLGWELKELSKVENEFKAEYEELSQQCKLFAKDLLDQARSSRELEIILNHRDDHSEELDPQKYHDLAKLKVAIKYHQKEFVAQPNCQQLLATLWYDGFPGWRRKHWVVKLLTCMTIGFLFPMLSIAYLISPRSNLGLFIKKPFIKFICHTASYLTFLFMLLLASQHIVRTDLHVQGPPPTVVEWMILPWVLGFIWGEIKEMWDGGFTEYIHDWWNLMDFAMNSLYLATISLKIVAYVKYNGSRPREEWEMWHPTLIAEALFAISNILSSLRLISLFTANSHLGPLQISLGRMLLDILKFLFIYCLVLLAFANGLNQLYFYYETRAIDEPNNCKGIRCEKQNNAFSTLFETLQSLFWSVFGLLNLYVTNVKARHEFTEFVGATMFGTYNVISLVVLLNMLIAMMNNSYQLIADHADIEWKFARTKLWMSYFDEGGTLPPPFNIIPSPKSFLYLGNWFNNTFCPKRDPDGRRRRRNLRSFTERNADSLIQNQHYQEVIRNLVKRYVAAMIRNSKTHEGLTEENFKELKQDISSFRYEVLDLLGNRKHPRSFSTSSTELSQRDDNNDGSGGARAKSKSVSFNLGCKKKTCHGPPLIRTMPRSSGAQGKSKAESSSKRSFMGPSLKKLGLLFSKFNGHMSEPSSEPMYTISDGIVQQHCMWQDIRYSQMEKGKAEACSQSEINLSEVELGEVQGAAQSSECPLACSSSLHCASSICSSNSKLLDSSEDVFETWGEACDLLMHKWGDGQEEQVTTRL
Procedure: Cell culture: hTRPC5-T478C-HEK cells were cultured in a humid environment in 5% CO2 at 37° C.
Cell culture medium ingredients: • DMEM, Supplier: Gibco, Catalog No. 11965-092; • FBS, Supplier: Gibco, Catalog No. 10099-141C, Concentration: 10%; • Pen/Strep, Supplier: Invitrogen, Catalog No. 15140-122, Concentration: 1%; • Zeocin, Supplier: Invitrogen, Catalog No. R25005, Concentration: 200 μg/mL; • Blasticidin S, Supplier: Invitrogen, Catalog No. R21001, Concentration: 5 μg/mL.
In general, the TRPC5-T478C cell line was passaged three times weekly. The dilution factor for each passage was 1:3. Once the cells reached about 80% confluence in the T-75 flask, the cell line was digested with trypsin for about 1 minute and the cell suspension was removed from the flask with a pipette. Depending on the dilution ratio, the removed cell suspension would be transferred to another T-75 flask containing cell culture medium. Note that in order to maintain the logarithmic growth of the cells, the confluence of the cells should be maintained at the subconfluent stage and the cells should be passaged once every 2 to 3 days depending on the proliferation rate of the cell line.
(1) Preparation of cell plate: the cells were separated according to the above-mentioned passaging and the cell density and viability were determined using a cell counter. The volume of the cell suspension was adjusted with a cell culture medium. After the density reached to the plating density, 1 μg/mL tetracycline was added to induce hTRPC5-T478C channel expression. The induced hTRPC5-T478C cells were then seeded onto poly-D-lysine (PDL)-coated 384-well plates at a density of 20000 cells/well (30 μL/well). Then the cells were cultured overnight in a cell culture incubator.
(2) Preparation of compound plate: the compounds were generally diluted with DMSO, prepared into a mother liquor and stored in a −20° C. refrigerator. A compound plating program was set on the ECHO processor, and the compounds were plated with ECHO according to the concentration gradient that was already set. In general, 9 concentrations were included with the highest concentration at 10 μM, 3-fold dilution, and 2 replicate wells. Englerin A was used as the channel agonist.
(3) On-machine testing: the cell plates and compound plates were prepared according to the above-mentioned methods. After the cell confluence of the cell plate reached 80%-90%, the cells were removed from the incubator and the testing started. Ca5 dye (Molecular Devices #R8185) was formulated with test buffer. After the cell plate culture medium was removed with Bravo, 25 μL of Ca5 dye was added to each well, and the plate was incubated for 1 hour. After 1 hour, the cell plate and compound plate were placed in FLIPR^TETRA (Molecular Devices, USA) for FLIPR detection.
Data analysis was performed using Excel 2013 (Microsoft, USA) software and GraphPad Prism 6.01 software. The maximum signal was generated by FLIPR software. Data analysis was performed using Excel (2013) and Prism 6.01. Data quality and data stability were controlled using S/B>2.50 and Z factor>0.50. The calculation formula was as follows: S/B=Avg100%/Avg0%; Z factor=1−(3*SD100%+3*SDO %)/|Avg100%-Avg0%.

[1] = Rat group tissue distribution test; type: in vivo, SD male rats; settings: intragastric, SD rats, n = 3; for concentration at 1 h / concentration at 4 h / concentration at 12 h: male, Sprague Dawley, rat, oral, read-out: Average drug concentration
Source text: In this study, SD male rats were selected as the test animals, and the LC/MS/MS method was used to quantitatively determine the drug concentration at different time points in the plasma, cerebrospinal fluid, brain, liver, and kidney of the test compounds administered orally to evaluate the tissue distribution of the test drugs in the rats.
Experimental materials: Sprague Dawley (SD) rats (male, 200-300 g, 7-10 weeks old, Beijing Vital River).
A clear solution or suspension of the test compounds was administered intragastrically into SD rats (fasted) (vehicle: 5% DMSO/10% Kolliphor® HS 15/85% water). […] The mixture was vortexed thoroughly and centrifuged at 3200 g, 4° C. for 10 minutes to obtain the plasma. The cerebrospinal fluid (about 0.02 mL) was collected. The brain, liver, and kidney were collected, rinsed with pre-cooled physiological saline, dried with paper, and then homogenated in a ratio of 1:4 (1 g of tissue: 4 mL of 15 mM phosphate-buffered physiological saline/MeOH (2:1)). The LC-MS/MS method was used to determine the drug concentration, and the Phoenix WinNonlin 6.3 pharmacokinetic software was used to calculate the relevant pharmacokinetic parameters by the non-compartmental model linear logarithmic trapezoidal method.

Compound: O=c1[nH]ncc(N2CCc3c(ncnc3Sc3ccc(F)cc3C(F)(F)F)C2)c1Cl [Compound WX002]
IC50 (hTRPC5-T478C): 0.027 µM

Compound: O=c1[nH]ncc(N2CCc3c(ncnc3Oc3ccc(F)cc3Br)C2)c1Cl [Compound WX004]
IC50 (hTRPC5-T478C): 0.04 µM

Compound: O=c1[nH]ncc(N2CCc3c(ncnc3Oc3ccc(F)cc3C(F)(F)F)C2)c1Br [Compound WX009]
IC50 (hTRPC5-T478C): 0.037 µM

Compound: CC(F)(F)c1cc(F)ccc1Oc1ncnc2c1CCN(c1cn[nH]c(=O)c1Cl)C2 [Compound WX010]
IC50 (hTRPC5-T478C): 0.071 µM

Other lines, results leading:

IC50 (hTRPC5-T478C): 0.08 µM
Compound: COCc1nc2c(c(Oc3ccc(F)cc3C(F)(F)F)n1)CCN(c1cn[nH]c(=O)c1Cl)C2 [Compound WX011]

IC50 (hTRPC5-T478C): 0.024 µM | Average drug concentration ([1]; Brain, 12 h): BQL | concentration at 1 h ([1]; Brain): 282 nM | concentration at 4 h ([1]; Brain): 373 nM | concentration at 1 h ([1]; Kidney): 2630 nM | concentration at 4 h ([1]; Kidney): 3440 nM | concentration at 12 h ([1]; Kidney, 12 h): 276 nM | concentration at 1 h ([1]; Liver): 5120 nM | concentration at 4 h ([1]; Liver): 5820 nM | concentration at 12 h ([1]; Liver, 12 h): 570 nM | concentration at 1 h ([1]; Plasma): 773 nM | concentration at 4 h ([1]; Plasma): 1080 nM | concentration at 12 h ([1]; Plasma, 12 h): 82.7 nM
Compound: O=c1[nH]ncc(N2CCc3c(nc(CO)nc3Sc3ccc(F)cc3C(F)(F)F)C2)c1Cl [Compound WX012]

IC50 (hTRPC5-T478C): 0.0557 µM | concentration at 1 h ([1]; Brain): 139 nM | concentration at 4 h ([1]; Brain): 197 nM | concentration at 12 h ([1]; Brain, 12 h): 86 nM | concentration at 1 h ([1]; Kidney): 1260 nM | concentration at 4 h ([1]; Kidney): 1470 nM | concentration at 12 h ([1]; Kidney, 12 h): 590 nM | concentration at 1 h ([1]; Liver): 2610 nM | concentration at 4 h ([1]; Liver): 3360 nM | concentration at 12 h ([1]; Liver, 12 h): 945 nM | concentration at 1 h ([1]; Plasma): 536 nM | concentration at 4 h ([1]; Plasma): 716 nM | concentration at 12 h ([1]; Plasma, 12 h): 272 nM
Compound: Nc1nc2c(c(Sc3ccc(F)cc3C(F)(F)F)n1)CCN(c1cn[nH]c(=O)c1Cl)C2 [Compound WX013]
